In publication PMC5620987 (ACS Central Science, 2017):
Where two headings read alike, the source gives them in different places.

Assays:
α-tubulin-ac = format: cell-based; conditions: 6 h, human iPSC-derived NPCs, Western blot
H3K9ac = format: cell-based; conditions: 6 h, human iPSC-derived NPCs, Western blot
H4K12ac = format: cell-based; conditions: 6 h, human iPSC-derived NPCs, Western blot
HDAC6 = HDAC6 (Rattus norvegicus, UniProt A0A8I6GM68); experiment: Autoradiography with [18F]Bavarostat on rat brain slices; format: binding, Sprague–Dawley rat; conditions: sagittal rat brain slices; 10 μM per Figure 4 legend (100 μM per method)
HDAC6, sequence (A0A8I6GM68 whole entry): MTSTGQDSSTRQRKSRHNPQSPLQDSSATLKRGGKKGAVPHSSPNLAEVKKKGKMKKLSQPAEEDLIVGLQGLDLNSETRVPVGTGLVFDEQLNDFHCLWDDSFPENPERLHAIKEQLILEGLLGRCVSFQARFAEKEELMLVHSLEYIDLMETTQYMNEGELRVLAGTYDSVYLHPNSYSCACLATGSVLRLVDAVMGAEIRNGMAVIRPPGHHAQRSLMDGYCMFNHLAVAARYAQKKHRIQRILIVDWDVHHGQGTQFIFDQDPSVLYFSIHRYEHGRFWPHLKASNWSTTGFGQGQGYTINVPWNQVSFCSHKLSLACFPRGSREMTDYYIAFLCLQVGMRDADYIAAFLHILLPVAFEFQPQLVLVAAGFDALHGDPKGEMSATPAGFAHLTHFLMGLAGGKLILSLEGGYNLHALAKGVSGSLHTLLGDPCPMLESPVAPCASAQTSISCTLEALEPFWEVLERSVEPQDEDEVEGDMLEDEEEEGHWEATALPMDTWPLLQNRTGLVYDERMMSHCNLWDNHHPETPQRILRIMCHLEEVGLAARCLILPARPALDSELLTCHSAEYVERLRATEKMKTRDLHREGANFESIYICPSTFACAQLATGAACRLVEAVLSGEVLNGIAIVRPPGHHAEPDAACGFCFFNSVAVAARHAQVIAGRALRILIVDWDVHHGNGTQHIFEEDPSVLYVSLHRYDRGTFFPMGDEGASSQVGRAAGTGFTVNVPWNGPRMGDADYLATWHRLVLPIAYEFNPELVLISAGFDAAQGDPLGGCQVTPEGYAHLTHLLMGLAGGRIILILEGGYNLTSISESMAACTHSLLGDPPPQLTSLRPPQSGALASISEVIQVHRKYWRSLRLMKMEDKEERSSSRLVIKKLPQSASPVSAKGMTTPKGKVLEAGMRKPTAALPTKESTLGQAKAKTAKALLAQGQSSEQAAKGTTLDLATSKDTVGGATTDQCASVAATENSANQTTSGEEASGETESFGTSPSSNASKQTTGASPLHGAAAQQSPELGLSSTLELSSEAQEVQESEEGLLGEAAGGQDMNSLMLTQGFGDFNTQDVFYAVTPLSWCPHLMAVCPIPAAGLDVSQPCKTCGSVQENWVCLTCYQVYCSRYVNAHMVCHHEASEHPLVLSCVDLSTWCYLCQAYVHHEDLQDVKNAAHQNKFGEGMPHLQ

SMILES	α-tubulin acetylation level (α-tubulin-ac) vs DMSO (α-tubulin-ac; 5 μM)	H3K9ac level vs DMSO (H3K9ac; 5 μM)	H4K12ac level vs DMSO (H4K12ac; 5 μM)	α-tubulin acetylation level (α-tubulin-ac) vs DMSO (α-tubulin-ac; 10 μM)	H3K9ac level vs DMSO (H3K9ac; 10 μM)	H4K12ac level vs DMSO (H4K12ac; 10 μM)	Reduction of bound [18F]Bavarostat radioactivity (HDAC6)
O=C(CCCCCCNC(=O)c1cnc(N(c2ccccc2)c2ccccc2)nc1)NO [ACY-1215]	effectively increased	increased	increased	–	–	–	–
CC(=O)Nc1ccc(C(=O)Nc2ccccc2N)cc1 [CI-994]	–	–	–	not α-tubulin-ac	significant increase	significant increase	–
CN1CCc2c(c3ccccc3n2Cc2ccc(C(=O)NO)cc2)C1 [Tubastatin A]	–	–	–	significantly increased	–	–	comparable level as Bavarostat
